Measurements published in patent publication US20210022342A1, “THE USE OF SAFENERS TO IMPROVE RESISTANCE OF RICE CROP TO HERBICIDES” (Adama Agan Ltd., priority 2018, published 2021).

Experiments:
Type in all cases: in vivo
[1] = system: ACCase inhibitor resistant rice seeds (ML0831265-01493 (ATCC deposit PTA-12933, mutation G2096S)); assay: Safener seed treatment with propaquizafop or quizalofop: regrowth of resistant rice
Procedure: (§1) Seeds of a proprietary ACCase resistant rice variety, i.e. RTA1, was used. RTA1, ML0831265-01493 (ATCC deposit PTA-12933, mutation G2096S) variety rice seeds were supplied by RiceTec. RTA1 rice cultivar contains a single mutation in the ACCase gene that confer ACCase resistance. The mutation makes the enzyme insensitive to quizalofop.
(§2) Mutant rice seeds were planted in commercial greenhouse soil mix in 10×10×10 cm plastic pots. 250 mL of soil was put into each pot, then the seeds were placed on top of the soil and the seeds were covered with 100-150 mL of soil. Approximately 8-10 seeds were planted per pot. The pots were then watered with 100 mL of a mixture of Miracle Grow and Fertiplus (iron supplement). The pots were placed in the greenhouse (38° C./20° C. day/night, 14 h photoperiod with supplemental light). The average light intensity in the greenhouse was 150 μM/m^2/sec.
Plants were grown until 10 days after planting and then the pots were transferred to trays and the plants were grown under water. :Plants were treated when they reached the 3-5 leaf stage. […]
(§3) Four days after treatment, the tops of the plants were cut off so that approximately 2.5 cm of plant from the top of the soil remain. The plants were allowed to regrow for 3 days at which time the amount of regrowth was weighed by measuring the amount of fresh weight of tissue that regrew. Comparing the weight of regrowth of shoots after cutting indicates the level of phytotoxicity the herbicide had on the mutant rice plant and the increased level of resistance of the mutant rice to the herbicide when the herbicide was applied in combination with the safener.
The safeners were also applied in various w/w ratios of the ACCase inhibiting herbicides to the rice seeds.

[2] = system: mutant rice (ML0831265-01493, ATCC deposit PTA-12933, mutation G2096S); assay: Tank mixes of safeners with propaquizafop or quizalofop: regrowth of mutant rice
Procedure: as §1, §2
Plants were grown until 10 days after planting and then the pots were transferred to trays and the plants were grown under water. :Plants were treated when they reached the 3-5 leaf stage.
Safeners were tank mixed with the herbicide in the spray bottle.
as §3
The safeners were applied in various w/w ratios with the ACCase inhibiting herbicides to the rice plant.

[3] = system: wild type rice (Non-Traited Rice); assay: Imazamox dose response with or without isoxadifen, regrowth, wild type rice; conditions: for Calculated effect of Safener (relative fresh weight re-growth): difference with and without isoxadifen on Non-Traited Rice
Procedure: (§4) Seed of an ALS resistant rice variety (rice plant with the A205V and G654E substitution (ATCC accession numbers PTA-123859, PTA-123860 and/or PTA-123861) is planted in a commercial greenhouse soil mix in 10×10×10 cm plastic pots. 250 mL of soil is put into each pot, then the seed is placed on top of the soil and the seed is covered with 100-150 mL of soil. Approximately 8-10 seeds are planted per pot. The pots are then watered with 100 mL of a mixture of Miracle Grow and Fertiplus (iron supplement). The pots are placed in the greenhouse (38° C./20° C. day/night, 14 h photoperiod with supplemental light). The average light intensity in the greenhouse is 150 μM/m^2/sec.
(§5) Plants are grown until 10 days after planting and then the pots are transferred to trays and the plants are grown under water. Plants are treated when they reach the 3-5 leaf stage.
(§6) Generally, plants are treated through a moving nozzle spray system in a spray volume of 200 l/ha or 187 l/ha. Isoxadifen is tank mixed with the herbicide in the spray bottle at a rate of 100 g/ha.
(§7) Four days after treatment, the tops of the plants are cut off to approximately 3 cm from the top of the soil. The plants are allowed to regrow for 7 days at which time the amount of regrowth is measured by cutting any growth above 3 cm above the top of soil and weighing the tissue that regrew.
(§8) The imazamox (in rates of 0, 2.2, 6.6, 19.7, 54.9 and 177.3 g/ha) was applied on wild type rice and herbicide resistance rice in the presence or absence of safener (isoxadifen at 100 g/ha).
(§9) The improvement in regrowth was calculated by subtracting the regrowth from a) wild type rice and wild type rice with isoxadifen; b) herbicide resistant rice; and c) herbicide resistant rice and isoxadifen.
(§10) Calculations were done for each application rate of imazamox. The efficacy of safener alone and mutation alone on decreasing herbicide effect/increasing herbicide resistance were calculated. The relative fresh weight re-growth is the percentage of activity (for Colby).
(§11) The re-growth data was implemented in curve and the synergistic effect was calculated. The observed efficacy is higher than calculated efficacy.

[4] = system: ALS resistant rice variety (A205V and G654E substitution); assay: Imazamox dose response with or without isoxadifen, regrowth, ALS resistant rice
Procedure: as §4, §5, §6, §7
Efficacy tests were conducted to determine the effect of imazamox on rice plant with the A205V and G654E substitutions (ATCC accession numbers PTA-123859, PTA-123860 and/or PTA-123861) in the presence of safener (isoxadifen).
as §8, §9, §10, §11

[5] = propaquizafop, safener seed treatment 0.5 g/kg of seed
[6] = propaquizafop, safener seed treatment 1 g/kg of seed
[7] = propaquizafop, safener seed treatment 2 g/kg of seed
[8] = quizalofop, safener seed treatment 0.5 g/kg of seed
[9] = quizalofop, safener seed treatment 1 g/kg of seed
[10] = quizalofop, safener seed treatment 2 g/kg of seed
[11] = tank mix with propaquizafop 50 g/ha, safener 12.5 g/ha
[12] = tank mix with propaquizafop 50 g/ha, safener 25 g/ha
[13] = tank mix with propaquizafop 50 g/ha, safener 50 g/ha
[14] = tank mix with propaquizafop 50 g/ha, safener 100 g/ha
[15] = tank mix with quizalofop 40 g/ha, safener 12.5 g/ha
[16] = tank mix with quizalofop 40 g/ha, safener 25 g/ha
[17] = tank mix with quizalofop 40 g/ha, safener 50 g/ha
[18] = tank mix with quizalofop 40 g/ha, safener 100 g/ha

What does the source list for O=C(O)COc1ccc(Cl)c2cccnc12 [Cloquinoce, cloquintocet]?
Regrowth (fresh weight mg) [1, 5]: 275 mg; Regrowth (fresh weight mg) [1, 6]: 342 mg; Regrowth (fresh weight mg) [1, 7]: 358 mg; Regrowth (fresh weight mg) [1, 8]: 143 mg; Regrowth (fresh weight mg) [1, 9]: 145 mg; Regrowth (fresh weight mg) [1, 10]: 273 mg; Regrowth (fresh weight mg) [2, 11]: 42 mg; Regrowth (fresh weight mg) [2, 12]: 90 mg; Regrowth (fresh weight mg) [2, 13]: 158 mg; Regrowth (fresh weight mg) [2, 14]: 355 mg; Regrowth (fresh weight mg) [2, 15]: 172 mg; Regrowth (fresh weight mg) [2, 16]: 132 mg; Regrowth (fresh weight mg) [2, 17]: 252 mg; Regrowth (fresh weight mg) [2, 18]: 398 mg

What does the source list for CC1COc2ccccc2N1C(=O)C(Cl)Cl (centres unmarked) [Benzacor, benoxacor]?
Regrowth (fresh weight mg) [1, 5]: 37 mg; Regrowth (fresh weight mg) [1, 6]: 107 mg; Regrowth (fresh weight mg) [1, 7]: 98 mg; Regrowth (fresh weight mg) [1, 8]: 90 mg; Regrowth (fresh weight mg) [1, 9]: 72 mg; Regrowth (fresh weight mg) [1, 10]: 78 mg

Which results are given for Clc1cc(Cl)nc(-c2ccccc2)n1 [Fenclorim, fenclorim]?
Regrowth (fresh weight mg) [1, 5]: 137 mg; Regrowth (fresh weight mg) [1, 6]: 195 mg; Regrowth (fresh weight mg) [1, 7]: 283 mg; Regrowth (fresh weight mg) [1, 8]: 163 mg; Regrowth (fresh weight mg) [1, 9]: 167 mg; Regrowth (fresh weight mg) [1, 10]: 180 mg; Regrowth (fresh weight mg) [2, 11]: 15 mg; Regrowth (fresh weight mg) [2, 12]: 13 mg; Regrowth (fresh weight mg) [2, 13]: 15 mg; Regrowth (fresh weight mg) [2, 14]: 15 mg; Regrowth (fresh weight mg) [2, 15]: 42 mg; Regrowth (fresh weight mg) [2, 16]: 52 mg; Regrowth (fresh weight mg) [2, 17]: 67 mg; Regrowth (fresh weight mg) [2, 18]: 55 mg

How did the “Regrowth (fresh weight mg)” value ([1]; propaquizafop, seeds without safener) turn out when CC(C)=NOCCOC(=O)[C@@H](C)Oc1ccc(Oc2cnc3cc(Cl)ccc3n2)cc1 [Propaquizafop, (R)-2-[[(1-methylethylidene)amino]oxy]ethyl 2-[4-[(6-chloro-2-quinoxalinyl)oxy]phenoxy]propanoate] was run?
The value was 55 mg.

What about the “Regrowth (fresh weight mg)” value ([2]; propaquizafop 50 g/ha, no safener) of the same compound?
The value was 25 mg.

How did the “Regrowth (fresh weight mg)” value [1, 5] turn out when O=C(C(Cl)Cl)N1CCOC12CCCCC2 [AD-67] was run?
The value was 173 mg.

And the “Regrowth (fresh weight mg)” value [1, 6]?
Its value is 113 mg.

And the “Regrowth (fresh weight mg)” value [1, 7]?
Its value is 170 mg.

And the “Regrowth (fresh weight mg)” value [1, 8]?
Its value is 233 mg.

And the “Regrowth (fresh weight mg)” value [1, 9]?
The value was 285 mg.

And the “Regrowth (fresh weight mg)” value [1, 10]?
The value was 298 mg.

And the “Regrowth (fresh weight mg)” value [2, 11]?
The value was 68 mg.

And the “Regrowth (fresh weight mg)” value [2, 12]?
Its value is 222 mg.

And the “Regrowth (fresh weight mg)” value [2, 13]?
Its value is 288 mg.

What about the “Regrowth (fresh weight mg)” value [2, 14] of the same compound?
The value was 512 mg.

What about the “Regrowth (fresh weight mg)” value [2, 15] of the same compound?
The value was 202 mg.

And the “Regrowth (fresh weight mg)” value [2, 16]?
The value was 292 mg.

And the “Regrowth (fresh weight mg)” value [2, 17]?
Its value is 348 mg.

What about the “Regrowth (fresh weight mg)” value [2, 18] of the same compound?
The value was 505 mg.

What does the source list for COCc1cnc(C2=NC(C)(C(C)C)C(=O)N2)c(C(=O)O)c1 (racemic) [Imazamox, 2-[(RS)-4-isopropyl-4-methyl-5-oxo-2-imidazolin-2-yl]-5-methoxymethylnicotinic acid]?
Relative fresh weight re-growth after treatment ([3]; Non-Traited Rice, imazamox 2.2 g/ha): 0.36; Relative fresh weight re-growth after treatment ([3]; Non-Traited Rice, imazamox 6.6 g/ha): 0.16; Relative fresh weight re-growth after treatment ([3]; Non-Traited Rice, imazamox 19.7 g/ha): 0.14; Relative fresh weight re-growth after treatment ([3]; Non-Traited Rice, imazamox 54.9 g/ha): 0.11; Relative fresh weight re-growth after treatment ([3]; Non-Traited Rice, imazamox 177.3 g/ha): 0.09; Relative fresh weight re-growth after treatment ([3]; Safener & Non-Traited Rice (isoxadifen 100 g/ha), imazamox 2.2 g/ha): 0.47; Relative fresh weight re-growth after treatment ([3]; Safener & Non-Traited Rice (isoxadifen 100 g/ha), imazamox 6.6 g/ha): 0.17; Relative fresh weight re-growth after treatment ([3]; Safener & Non-Traited Rice (isoxadifen 100 g/ha), imazamox 19.7 g/ha): 0.06; Relative fresh weight re-growth after treatment ([3]; Safener & Non-Traited Rice (isoxadifen 100 g/ha), imazamox 54.9 g/ha): 0.05; Relative fresh weight re-growth after treatment ([3]; Safener & Non-Traited Rice (isoxadifen 100 g/ha), imazamox 177.3 g/ha): 0.05; Efficacy at ED50 of mutant- 42 g/ha (%) ([3]; calculated effect of safener alone, imazamox 42 g/ha): 0%; Calculated effect of Safener (relative fresh weight re-growth) ([3]; imazamox 2.2 g/ha): 0.12; Calculated effect of Safener (relative fresh weight re-growth) ([3]; imazamox 6.6 g/ha): 0.02; Calculated effect of Safener (relative fresh weight re-growth) ([3]; imazamox 19.7 g/ha): −0.08; Calculated effect of Safener (relative fresh weight re-growth) ([3]; imazamox 54.9 g/ha): −0.06; Calculated effect of Safener (relative fresh weight re-growth) ([3]; imazamox 177.3 g/ha): −0.04; increase of resistance (ED50) by the safener ([3]; wildtype rice with safener vs without): 4 folds; Relative fresh weight re-growth after treatment ([4]; Mutant & Safener (isoxadifen 100 g/ha), imazamox 2.2 g/ha): 1.17; Relative fresh weight re-growth after treatment ([4]; Mutant & Safener (isoxadifen 100 g/ha), imazamox 6.6 g/ha): 1.33; Relative fresh weight re-growth after treatment ([4]; Mutant & Safener (isoxadifen 100 g/ha), imazamox 19.7 g/ha): 1.14; Relative fresh weight re-growth after treatment ([4]; Mutant & Safener (isoxadifen 100 g/ha), imazamox 54.9 g/ha): 0.53; Relative fresh weight re-growth after treatment ([4]; Mutant & Safener (isoxadifen 100 g/ha), imazamox 177.3 g/ha): 0.13; Relative fresh weight re-growth after treatment ([4]; Mutant, no safener, imazamox 2.2 g/ha): 0.93; Relative fresh weight re-growth after treatment ([4]; Mutant, no safener, imazamox 6.6 g/ha): 0.99; Relative fresh weight re-growth after treatment ([4]; Mutant, no safener, imazamox 19.7 g/ha): 0.68; Relative fresh weight re-growth after treatment ([4]; Mutant, no safener, imazamox 54.9 g/ha): 0.42; Relative fresh weight re-growth after treatment ([4]; Mutant, no safener, imazamox 177.3 g/ha): 0.15; Calculated efficacy base on Colby (%) ([4]; expected for mutant & safener, imazamox 42 g/ha): 50%; additive effect of safener and mutant on ED50 ([4]; expected, 4+85): 89 folds; observed increase in ED50 ([4]; herbicide resistant rice with safener vs the wildtype): 120 folds; Observed efficacy (%) ([4]; mutant & safener, imazamox 42 g/ha): 77%; Efficacy at ED50 of mutant- 42 g/ha (%) ([4]; mutant alone, imazamox 42 g/ha): 50%; increase in tolerance to herbicide (ED50) by the mutation ([4]; mutant rice vs wildtype rice, no safener): 85 fold
